Data from patent US4657861A, “S-tetrahydroprotoberberineoxidase, process for producing the same and use thereof” (priority 1984, dated 1987).
Like-named read-outs stand apart in the source and are kept apart here.

Columns and labels:
[1] = target: T1, S-tetrahydroprotoberberineoxidase (Berberis wilsoniae, UniProt F1BVB6); assay: Enzymatic oxidation of R,S-substrates with S-tetrahydroprotoberberineoxidase preparation, photometric analysis; settings: 37° C.; for Fate of R-form under enzymatic oxidation: pH=8.9; for Conversion of S-form into oxidized product: pH=8.9, admission of air
[2] = target: T1, S-tetrahydroprotoberberineoxidase; assay: Inhibition of S-tetrahydroprotoberberineoxidase; assay type: biochemical, Berberis wilsonae var. subcaulialata; design: S-tetrahydroprotoberberineoxidase can be obtained by extraction from plant materials; from tissue; host or cells: plant material (Berberis wilsoniae inferred)
[3] = target: T1, S-tetrahydroprotoberberineoxidase; assay: KM value of S-tetrahydroprotoberberineoxidase for substrate; assay type: biochemical, Berberis wilsonae var. subcaulialata; design: S-tetrahydroprotoberberineoxidase can be obtained by extraction from plant materials; from tissue; host or cells: plant material (Berberis wilsoniae inferred); settings: at 40° C. and pH 8.9
Procedure: KM value for R,S-corypalmine at 40° C. and pH 8.9, 1.3 μMoles

[4] = target: T1, S-tetrahydroprotoberberineoxidase; settings: pH 8.9
[5] = target: T2, S-tetrahydroprotoberberineoxidase immobilized on calcium alginate (Berberis wilsoniae, UniProt F1BVB6); assay: Enzymatic oxidation with S-tetrahydroprotoberberineoxidase immobilized on calcium alginate, photometric analysis; assay type: biochemical, Berberis wilsonae var. subcaulialata; settings: immobilized enzyme, 30° C., 150 hours, pH=8.9, admission of air
T2 construct: S-tetrahydroprotoberberineoxidase can be obtained by extraction from plant materials; from tissue; host or cells: plant material (Berberis wilsoniae inferred)
T2 sequence (F1BVB6 25-530): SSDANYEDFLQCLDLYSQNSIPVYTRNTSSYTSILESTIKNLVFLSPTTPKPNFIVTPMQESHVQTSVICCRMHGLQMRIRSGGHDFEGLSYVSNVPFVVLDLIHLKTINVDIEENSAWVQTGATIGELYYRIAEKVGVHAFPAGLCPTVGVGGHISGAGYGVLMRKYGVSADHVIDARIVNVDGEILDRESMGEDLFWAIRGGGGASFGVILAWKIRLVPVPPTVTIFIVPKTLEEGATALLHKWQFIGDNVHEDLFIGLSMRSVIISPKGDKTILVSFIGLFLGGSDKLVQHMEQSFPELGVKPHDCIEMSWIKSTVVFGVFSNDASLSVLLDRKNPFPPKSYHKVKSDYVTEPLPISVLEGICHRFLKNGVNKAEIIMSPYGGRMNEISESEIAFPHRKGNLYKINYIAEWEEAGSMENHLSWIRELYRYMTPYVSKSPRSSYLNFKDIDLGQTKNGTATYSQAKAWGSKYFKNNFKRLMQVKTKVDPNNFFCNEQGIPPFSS

`COc1cc2c(cc1O)CCN1Cc3c(ccc(OC)c3OC)C[C@H]21` [R-corypalmine] was tested, and the “Fate of R-form under enzymatic oxidation” value ([1]; after 2 hours) was “remained unchanged”.
With `COc1ccc(C[C@H]2NCCc3cc(OC)c(O)cc32)cc1O` [R-norreticuline] the “Fate of R-form under enzymatic oxidation” value ([1]; after 16 hours) was “remained unchanged”.
With `COc1ccc2c(c1OC)CN1CCc3cc4c(cc3[C@H]1C2)OCO4` [R-canadine] the “Fate of R-form under enzymatic oxidation” value ([1]; after 2 hours) was “remained unchanged”.
In the case of `O=c1c(O)c(-c2ccc(O)cc2O)oc2cc(O)cc(O)c12` [morin], the “Inhibition of the enzyme in the presence of the substance” value [2] is reported as “Complete and reversible inhibition”.
Work on `COc1cc2c(cc1O)CCN1Cc3c(ccc(OC)c3OC)CC21` (racemic) [R,S-corypalmine] yielded a Km [3] of 1.3 µM.
For `COc1ccc2c(c1)CCN[C@H]2Cc1cc(O)cc(O)c1` [S-[1-(3',5'-dihydroxy-benzyl)-6-methoxy-1,2,3,4-tetrahydroisoquinoline]], the “Conversion of S-form into oxidized product” value ([4]; 16 h) was 100%.
For `COc1ccc2c(c1)CCN[C@@H]2Cc1cc(O)cc(O)c1` [R-form], the “Fate of R-form under enzymatic oxidation” value ([1]; after 16 hours) was “remained unchanged”.
With `COc1cc2c(cc1O)CCN1Cc3c(ccc(OC)c3OC)C[C@@H]21` [S-corypalmine] the “Conversion of S-form into oxidized product” value ([4]; 2 h) was 100%.
`COc1ccc(C[C@@H]2NCCc3cc(OC)c(O)cc32)cc1O` [S-norreticuline] was tested, and the “Conversion of S-form into oxidized product” value ([1]; after 16 hours) was 100% and the “Conversion to 1,2-dehydronorreticuline” value [5] was “complete conversion”.
`COc1ccc2c(c1OC)CN1CCc3cc4c(cc3[C@@H]1C2)OCO4` [S-canadine] was tested, and the “Conversion of S-form into oxidized product” value ([1]; after 2 hours) was 100%.
With `CC(=O)CC(C)=O` [acetylacetone] the “Inhibition of the enzyme in the presence of the substance” value [2] was “Complete and reversible inhibition”.
